# Source: article PMC6326999, “Functionalized Magnetic Bacterial Cellulose Beads as Carrier for Lecitase® Ultra Immobilization” (Applied Biochemistry and Biotechnology, 2018)
# Test system: T1, Lecitase® Ultra (LU)
# T1 construct: gene LIP; commercial preparation (Sigma-Aldrich), free enzyme
# Experiment: absorbance at […] nm, hydrolysis initial rates, non-linear Michaelis-Menten fit
# Format: biochemical
# Settings: free enzyme; 50 mM Tris-Cl pH 8.5, 0.25% Triton X-100, 30 °C (standard assay); commercial preparation; kcat column headed 'Kcat × 10^3 (s^-1)'
smiles,measurement,value
CCCCCCCCCCCCCCCC(=O)Oc1ccc([N+](=O)[O-])cc1 [4-nitrophenol palmitate],Km,450 ± 50 µM
